Source: ChEMBL document CHEMBL1150165, “Antineoplastic agents. 489. Isolation and structures of meliastatins 1-5 and related euphane triterpenes from the tree Melia dubia” (2002)
Converted amounts (≈) assume the structure as drawn.

Columns and labels:
Format in all cases: functional
[1] = tested on: P388; test: Growth inhibition of mouse P388 cells; conditions: read-out: ED50 (the source's name)
[2] = tested on: MCF7; test: Growth inhibition of human MCF7 cells
[3] = tested on: SF-268; test: Growth inhibition of human SF268 cells
[4] = tested on: KM-20L2; test: Growth inhibition of human KM20L2 cells
[5] = tested on: NCI-H460; test: Growth inhibition of human NCI-H460 cells
[6] = tested on: BXPC-3; test: Growth inhibition of human BxPC3 cells
[7] = tested on: DU-145; test: Growth inhibition of human DU145 cells

Row | Structure (SMILES) | EC50 [1] [µg/mL] | GI50 [2] [µg/mL] | GI50 [3] [µg/mL] | GI50 [4] [µg/mL] | GI50 [5] [µg/mL] | GI50 [6] [µg/mL] | GI50 [7] [µg/mL]
1 | COC(=O)[C@H](C/C=C/C(C)(C)O)[C@@H]1[C@@H](O)C[C@]2(C)C3=CC[C@H]4C(C)(C)C(=O)CC[C@]4(C)[C@H]3CC[C@@]12C [MELIASTATIN 2] | 5.6 (≈ 11.2 µM) | 6.3 (≈ 12.6 µM) | 6.3 (≈ 12.6 µM) | 6.3 (≈ 12.6 µM) | 6.3 (≈ 12.6 µM) | 6.3 (≈ 12.6 µM) | 6.3 (≈ 12.6 µM)
2 | O=c1[nH]cc(F)c(=O)[nH]1 [FLUOROURACIL] | 0.075 (≈ 0.577 µM) | – | – | – | – | – | –
3 | C=C(C)C(O)CC[C@@H](C)[C@@H]1[C@@H](O)C[C@]2(C)C3=CC[C@H]4C(C)(C)C(=O)CC[C@]4(C)[C@H]3CC[C@@]12C (stereo not given in full) [MELIASTATIN 5] | 1.7 (≈ 3.72 µM) | – | – | – | – | – | –
4 | COC(=O)[C@H](CCC=C(C)C)[C@@H]1[C@@H](O)C[C@]2(C)C3=CC[C@H]4C(C)(C)C(=O)CC[C@]4(C)[C@H]3CC[C@@]12C [METHYL KULONATE] | 5.1 (≈ 10.5 µM) | 3.7 (≈ 7.63 µM) | 3.7 (≈ 7.63 µM) | 3.7 (≈ 7.63 µM) | 3.7 (≈ 7.63 µM) | 3.7 (≈ 7.63 µM) | 3.7 (≈ 7.63 µM)
5 | C=C(C)[C@@H](O)CC[C@@H](C(=O)OC)[C@@H]1[C@@H](O)C[C@]2(C)C3=CC[C@H]4C(C)(C)C(=O)CC[C@]4(C)[C@H]3CC[C@@]12C [MELIASTATIN 4] | 2 (≈ 3.99 µM) | – | – | – | – | – | –
6 | COC(=O)[C@H](C/C=C/C(C)(C)OO)[C@@H]1[C@@H](O)C[C@]2(C)C3=CC[C@H]4C(C)(C)C(=O)CC[C@]4(C)[C@H]3CC[C@@]12C [MELIASTATIN 3] | 3.1 (≈ 6 µM) | – | – | – | – | – | –
7 | CC(C)=CCC[C@H]1C(=O)O[C@H]2C[C@]3(C)C4=CC[C@H]5C(C)(C)C(=O)CC[C@]5(C)[C@H]4CC[C@@]3(C)[C@@H]21 [KULACTONE] | 6.2 (≈ 13.7 µM) | – | – | – | – | – | –
8 | C[C@H](C/C=C/C(C)(C)O)[C@@H]1[C@@H](O)C[C@]2(C)C3=CC[C@H]4C(C)(C)C(=O)CC[C@]4(C)[C@H]3CC[C@@]12C [MELIASTATIN 1] | 2.5 (≈ 5.47 µM) | 1.9 (≈ 4.16 µM) | 1.9 (≈ 4.16 µM) | 1.9 (≈ 4.16 µM) | 1.9 (≈ 4.16 µM) | 1.9 (≈ 4.16 µM) | 1.9 (≈ 4.16 µM)
9 | CC(C)=CCC[C@@H](C)[C@@H]1[C@@H](O)C[C@]2(C)C3=CC[C@H]4C(C)(C)[C@@H](O)CC[C@]4(C)[C@H]3CC[C@@]12C | 2.5 (≈ 5.65 µM) | – | – | – | – | – | –
10 | C=C(C)[C@@H]1CCC([C@@H]2[C@@H](O)C[C@]3(C)C4=CC[C@H]5C(C)(C)C(=O)CC[C@]5(C)[C@H]4CC[C@@]23C)C(=O)O1 (stereo not given in full) [DUBIONE B] | 20.5 (≈ 43.7 µM) | – | – | – | – | – | –
11 | CC(C)=CCC[C@@H](C)[C@@H]1[C@@H](O)C[C@]2(C)C3=CC[C@H]4C(C)(C)C(=O)CC[C@]4(C)[C@H]3CC[C@@]12C [KULINONE] | 4.6 (≈ 10.4 µM) | 3.6 (≈ 8.17 µM) | 3.6 (≈ 8.17 µM) | 3.6 (≈ 8.17 µM) | 3.6 (≈ 8.17 µM) | 3.61 (≈ 8.19 µM) | 3.6 (≈ 8.17 µM)
